Experimental data: ChEMBL document CHEMBL4431321, “Profiling of Flavonol Derivatives for the Development of Antitrypanosomatidic Drugs” (J Med Chem, 2016)
Activity calls are given as the source filed them. No cut-off for these calls is given here.

Columns and labels:
A549 = test: Cytotoxicity against human A549 cells at 100 uM after 48 hrs by cell titer glo assay; assay type: cell-based; details: a549, 48 h
WI-38 = test: Cytotoxicity against human WI38 cells at 100 uM after 48 hrs by cell titer glo assay; assay type: cell-based; details: wi-38, 48 h
[1] = target: T1, Dihydrofolate reductase (Homo sapiens) (UniProt P00374); test: Inhibition of human DHFR at 50 uM using folic aid as substrate by spectrophotometric analysis
T1 sequence (whole entry): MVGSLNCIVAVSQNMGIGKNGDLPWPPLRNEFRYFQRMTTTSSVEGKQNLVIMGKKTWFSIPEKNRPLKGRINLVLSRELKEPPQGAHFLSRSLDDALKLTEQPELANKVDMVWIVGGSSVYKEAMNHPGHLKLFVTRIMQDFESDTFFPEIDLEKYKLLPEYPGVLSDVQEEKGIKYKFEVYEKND

[2] = target: Thymidylate synthase (Homo sapiens) (UniProt P04818); test: Inhibition of human thymidylate synthase at 50 uM using folic aid as substrate by spectrophotometric analysis
786-0 = test: Mitochondrial toxicity in human 786-O cells incubated for 6 hrs by mitotracker red staining based-uptake method; assay type: cell-based; details: 786-0, 6 h
Trypanosoma brucei [3] = test: Inhibition of Trypanosoma brucei PTR1 at 50 uM using H2B as substrate incubated for 10 mins followed by addition of NADPH measured for 10 to 50 mins
[4] = target: Aurora kinase B (Homo sapiens) (UniProt Q96GD4); test: Inhibition of recombinant full-length human aurora B kinase expressed in baculovirus system using MBP as substrate at 10 uM incubated for 45 mins by ADP-glo kinase assay
Leishmania mexicana [5] = test: Inhibition of Leishmania mexicana DHFR at 50 uM using folic aid as substrate by spectrophotometric analysis
Trypanosoma brucei [6] = test: Inhibition of Trypanosoma brucei DHFR at 50 uM using folic aid as substrate by spectrophotometric analysis
[7] = tested on: Trypanosoma brucei brucei; test: Antitrypanosomal activity against Trypanosoma brucei brucei Lister 427 bloodstream forms assessed as synergy coefficient at 2.5 to 5 uM after 72 hrs in presence of MTX by resazurin-based assay; assay type: functional
[8] = tested on: Trypanosoma brucei brucei; test: Antitrypanosomal activity against Trypanosoma brucei brucei Lister 427 bloodstream forms assessed as synergy coefficient at 1.25 to 5 uM after 72 hrs in presence of MTX by resazurin-based assay; assay type: functional
[9] = Cytotoxicity against human THP1 cells after 72 hrs by MTT assay; assay type: cell-based; details: THP-1 cells; for MNTC at 72 h: read-out: NOAEL
[10] = tested on: Trypanosoma brucei brucei; test: Antitrypanosomal activity against Trypanosoma brucei brucei Lister 427 bloodstream forms after 72 hrs by resazurin-based assay; assay type: functional, organism-based; details: Lister 427, 72 h
in vitro = details: human, THP-1 cells
Description: Selectivity index, ratio of CC50 for human THP1 cells to EC50 for Trypanosoma brucei brucei Lister 427 bloodstream forms

[11] = tested on: Trypanosoma brucei brucei; test: Antitrypanosomal activity against Trypanosoma brucei brucei Lister 427 bloodstream forms at 10 uM after 72 hrs by resazurin-based assay; assay type: functional, organism-based
Cytochrome P450 1A2 [12] = target: T2, Cytochrome P450 1A2 (Homo sapiens, UniProt P05177); test: Inhibition of human microsomal CYP1A2 expressed in baculovirus infected BTI-TN-5B1-4 cells at 10 uM incubated for 30 mins by luciferase assay; assay type: ADME; details: bti-tn-5b1-4, 0.5 h, 10 µM
T2 sequence (P05177 whole entry): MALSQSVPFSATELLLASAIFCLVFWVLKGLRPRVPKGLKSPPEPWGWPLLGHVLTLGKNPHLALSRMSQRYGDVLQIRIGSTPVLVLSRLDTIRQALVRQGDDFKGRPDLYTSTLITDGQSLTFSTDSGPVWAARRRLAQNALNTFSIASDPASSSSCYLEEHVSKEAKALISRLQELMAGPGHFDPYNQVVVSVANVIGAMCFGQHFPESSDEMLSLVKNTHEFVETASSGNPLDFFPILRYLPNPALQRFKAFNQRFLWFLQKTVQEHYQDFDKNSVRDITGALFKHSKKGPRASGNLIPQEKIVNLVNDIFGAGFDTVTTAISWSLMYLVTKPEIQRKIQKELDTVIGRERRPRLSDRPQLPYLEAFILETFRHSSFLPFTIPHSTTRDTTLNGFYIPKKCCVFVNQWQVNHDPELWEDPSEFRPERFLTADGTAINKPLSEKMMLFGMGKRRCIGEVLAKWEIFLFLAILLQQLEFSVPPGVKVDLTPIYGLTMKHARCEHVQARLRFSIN

[13] = Solubility of compound in PBS incubated for 18 hrs by UV-visible spectroscopic analysis; assay type: physicochemical; details: buffer
Cytochrome P450 2C9 = Cytochrome P450 2C9 (Homo sapiens, UniProt P11712); test: Inhibition of human microsomal CYP2C9 expressed in baculovirus infected BTI-TN-5B1-4 cells incubated for 30 mins by luciferase assay; assay type: ADME
[14] = Drug uptake in BALB/c mouse blood at 1 mg/kg, iv administered as single dose after 30 mins by HPLC analysis; assay type: ADME, organism-based; details: in vivo, 0.5 h
[15] = Half life BALB/c mouse blood at 1 mg/kg, iv administered as single dose by HPLC analysis; assay type: ADME, organism-based
[16] = Drug uptake in BALB/c mouse plasma at 1 mg/kg, po administered as single dose through encapsulation in PLGA nanoparticles by HPLC analysis; assay type: ADME, organism-based; details: in vivo
Cytochrome P450 2C19 = Cytochrome P450 2C19 (Homo sapiens, UniProt P33261); test: Inhibition of human microsomal CYP2C19 expressed in baculovirus infected BTI-TN-5B1-4 cells incubated for 30 mins by luciferase assay; assay type: ADME
[17] = Cytotoxicity against human THP1 cells compound treated with cyclodextrins after 72 hrs by MTT assay; assay type: cell-based; details: THP-1 cells, read-out: NOAEL
[18] = tested on: Trypanosoma brucei brucei; test: Antitrypanosomal activity against Trypanosoma brucei brucei Lister 427 bloodstream forms compound treated through encapsulation in PLGA nanoparticles after 72 hrs by resazurin-based assay; assay type: functional, organism-based; details: Lister 427, 72 h
Cytochrome P450 3A4 = Cytochrome P450 3A4 (Homo sapiens, UniProt P08684); test: Inhibition of human microsomal CYP3A4 expressed in baculovirus infected BTI-TN-5B1-4 cells incubated for 30 mins by luciferase assay; assay type: ADME
Dihydrofolate reductase = Dihydrofolate reductase (Homo sapiens, UniProt P00374); test: Inhibition of human DHFR using folic aid as substrate by spectrophotometric analysis
[19] = Drug uptake in BALB/c mouse plasma at 1 mg/kg, iv administered as single dose through encapsulation in PLGA nanoparticles by HPLC analysis; assay type: ADME, organism-based; details: in vivo
Cytochrome P450 2D6 = Cytochrome P450 2D6 (Homo sapiens, UniProt P10635); test: Inhibition of human microsomal CYP2D6 expressed in baculovirus infected BTI-TN-5B1-4 cells incubated for 30 mins by luciferase assay; assay type: ADME
[20] = target: Voltage-gated inwardly rectifying potassium channel KCNH2 (Homo sapiens, UniProt Q12809); test: Inhibition of human ERG in membranes incubated for 2 hrs by fluorescence polarization assay
Leishmania mexicana [21] = test: Inhibition of Leishmania mexicana PTR1 at 50 uM using H2B as substrate incubated for 10 mins followed by addition of NADPH measured for 10 to 50 mins
[22] = Inhibition of Trypanosoma brucei PTR1 using H2B as substrate incubated for 10 mins followed by addition of NADPH measured for 10 to 50 mins
[23] = tested on: Trypanosoma brucei brucei; test: Antitrypanosomal activity against Trypanosoma brucei brucei Lister 427 bloodstream forms compound treated with cyclodextrins after 72 hrs by resazurin-based assay; assay type: functional, organism-based; details: Lister 427, 72 h
[24] = Cytotoxicity against human THP1 cells compound treated through encapsulation in PLGA nanoparticles after 72 hrs by MTT assay; assay type: cell-based; details: THP-1 cells, read-out: NOAEL
[25] = Drug uptake in NMRI mouse plasma at 4 mg/kg, po administered with cyclodextrins by HPLC analysis; assay type: ADME, organism-based; details: in vivo
Cytochrome P450 1A2 [26] = target: T2, Cytochrome P450 1A2; test: Inhibition of human microsomal CYP1A2 expressed in baculovirus infected BTI-TN-5B1-4 cells incubated for 30 mins by luciferase assay; assay type: ADME
Leishmania infantum = test: Antiparasitic activity against Leishmania infantum MOM/MA67ITMAP263 amastigotes infected in human THP1 cells at 10 uM after 72 hrs by steady-glo luminescence assay; assay type: functional

Thymidylate synthase (Homo sapiens), sequence (P04818 2-313 limits assumed): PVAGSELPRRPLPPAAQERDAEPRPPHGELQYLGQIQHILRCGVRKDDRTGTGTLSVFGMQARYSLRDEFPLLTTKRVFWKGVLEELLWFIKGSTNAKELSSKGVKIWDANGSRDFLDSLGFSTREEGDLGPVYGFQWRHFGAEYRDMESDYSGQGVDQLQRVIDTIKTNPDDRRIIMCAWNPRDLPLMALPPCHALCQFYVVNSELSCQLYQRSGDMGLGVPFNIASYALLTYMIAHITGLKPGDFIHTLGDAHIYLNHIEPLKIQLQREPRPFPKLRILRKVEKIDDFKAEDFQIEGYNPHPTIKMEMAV
Aurora kinase B (Homo sapiens), sequence (Q96GD4 whole entry): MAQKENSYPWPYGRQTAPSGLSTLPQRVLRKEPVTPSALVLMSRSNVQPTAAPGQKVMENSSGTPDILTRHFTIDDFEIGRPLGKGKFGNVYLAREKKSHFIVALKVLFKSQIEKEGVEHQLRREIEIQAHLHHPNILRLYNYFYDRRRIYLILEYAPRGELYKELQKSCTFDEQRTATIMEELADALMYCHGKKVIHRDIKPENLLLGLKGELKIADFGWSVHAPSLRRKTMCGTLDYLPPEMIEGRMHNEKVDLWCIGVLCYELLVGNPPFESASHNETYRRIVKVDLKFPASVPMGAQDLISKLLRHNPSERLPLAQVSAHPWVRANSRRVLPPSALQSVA
Cytochrome P450 2D6, sequence (P10635 whole entry): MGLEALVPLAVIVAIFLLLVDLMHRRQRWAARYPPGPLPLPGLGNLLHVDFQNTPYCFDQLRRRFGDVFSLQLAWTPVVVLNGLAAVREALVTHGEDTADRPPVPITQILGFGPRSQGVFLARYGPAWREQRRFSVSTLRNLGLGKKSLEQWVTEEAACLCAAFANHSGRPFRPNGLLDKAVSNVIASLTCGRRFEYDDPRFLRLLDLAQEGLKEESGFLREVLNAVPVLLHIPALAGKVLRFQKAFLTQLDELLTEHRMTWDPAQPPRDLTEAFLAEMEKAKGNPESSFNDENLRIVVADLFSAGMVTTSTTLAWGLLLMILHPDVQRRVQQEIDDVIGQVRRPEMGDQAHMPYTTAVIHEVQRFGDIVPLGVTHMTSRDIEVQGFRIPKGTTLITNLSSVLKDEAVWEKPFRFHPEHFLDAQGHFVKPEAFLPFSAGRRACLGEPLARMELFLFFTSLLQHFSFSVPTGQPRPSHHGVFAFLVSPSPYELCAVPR
Voltage-gated inwardly rectifying potassium channel KCNH2, sequence (Q12809 whole entry): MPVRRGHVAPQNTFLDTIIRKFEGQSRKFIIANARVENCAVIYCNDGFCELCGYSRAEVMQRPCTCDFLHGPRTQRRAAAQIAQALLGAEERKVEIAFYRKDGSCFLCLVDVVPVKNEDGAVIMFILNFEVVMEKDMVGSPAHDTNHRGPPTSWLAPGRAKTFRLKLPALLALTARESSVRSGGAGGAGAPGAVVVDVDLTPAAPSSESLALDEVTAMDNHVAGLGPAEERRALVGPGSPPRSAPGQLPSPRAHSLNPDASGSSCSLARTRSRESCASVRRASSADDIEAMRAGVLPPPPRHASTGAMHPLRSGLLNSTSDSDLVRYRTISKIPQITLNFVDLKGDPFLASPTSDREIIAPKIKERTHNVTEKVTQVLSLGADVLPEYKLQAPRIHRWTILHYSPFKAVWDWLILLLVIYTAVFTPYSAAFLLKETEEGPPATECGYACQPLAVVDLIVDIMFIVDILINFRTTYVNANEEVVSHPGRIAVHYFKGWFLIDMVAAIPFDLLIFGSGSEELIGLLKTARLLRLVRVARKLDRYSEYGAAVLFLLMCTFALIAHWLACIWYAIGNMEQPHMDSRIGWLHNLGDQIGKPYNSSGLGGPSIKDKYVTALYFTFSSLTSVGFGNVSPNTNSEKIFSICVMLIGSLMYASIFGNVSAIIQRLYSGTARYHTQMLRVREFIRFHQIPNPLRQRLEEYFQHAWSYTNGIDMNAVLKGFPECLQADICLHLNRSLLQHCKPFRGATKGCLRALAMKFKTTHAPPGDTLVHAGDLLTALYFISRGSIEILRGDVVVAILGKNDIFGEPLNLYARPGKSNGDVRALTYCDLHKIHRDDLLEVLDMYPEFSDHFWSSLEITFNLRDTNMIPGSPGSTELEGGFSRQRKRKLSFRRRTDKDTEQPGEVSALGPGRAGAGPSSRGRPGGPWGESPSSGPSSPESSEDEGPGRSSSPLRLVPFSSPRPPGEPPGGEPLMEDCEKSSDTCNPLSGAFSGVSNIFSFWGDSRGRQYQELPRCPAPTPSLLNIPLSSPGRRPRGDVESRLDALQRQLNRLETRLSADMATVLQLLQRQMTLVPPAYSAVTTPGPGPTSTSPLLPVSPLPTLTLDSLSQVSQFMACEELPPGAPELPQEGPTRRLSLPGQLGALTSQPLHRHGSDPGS
Cytochrome P450 2C19, sequence (P33261 whole entry): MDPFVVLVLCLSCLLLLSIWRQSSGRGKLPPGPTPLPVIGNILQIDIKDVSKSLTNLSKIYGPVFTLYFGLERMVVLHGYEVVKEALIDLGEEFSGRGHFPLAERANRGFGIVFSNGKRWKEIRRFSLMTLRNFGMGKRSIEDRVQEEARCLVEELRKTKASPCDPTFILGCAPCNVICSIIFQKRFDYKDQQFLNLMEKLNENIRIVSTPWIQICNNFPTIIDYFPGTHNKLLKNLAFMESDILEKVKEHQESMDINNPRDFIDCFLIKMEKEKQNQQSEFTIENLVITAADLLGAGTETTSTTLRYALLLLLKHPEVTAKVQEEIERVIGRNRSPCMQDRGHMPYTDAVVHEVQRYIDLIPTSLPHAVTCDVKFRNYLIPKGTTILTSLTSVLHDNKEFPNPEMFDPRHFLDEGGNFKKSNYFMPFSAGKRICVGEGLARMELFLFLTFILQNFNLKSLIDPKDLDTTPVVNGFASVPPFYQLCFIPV
Cytochrome P450 2C9, sequence (P11712 whole entry): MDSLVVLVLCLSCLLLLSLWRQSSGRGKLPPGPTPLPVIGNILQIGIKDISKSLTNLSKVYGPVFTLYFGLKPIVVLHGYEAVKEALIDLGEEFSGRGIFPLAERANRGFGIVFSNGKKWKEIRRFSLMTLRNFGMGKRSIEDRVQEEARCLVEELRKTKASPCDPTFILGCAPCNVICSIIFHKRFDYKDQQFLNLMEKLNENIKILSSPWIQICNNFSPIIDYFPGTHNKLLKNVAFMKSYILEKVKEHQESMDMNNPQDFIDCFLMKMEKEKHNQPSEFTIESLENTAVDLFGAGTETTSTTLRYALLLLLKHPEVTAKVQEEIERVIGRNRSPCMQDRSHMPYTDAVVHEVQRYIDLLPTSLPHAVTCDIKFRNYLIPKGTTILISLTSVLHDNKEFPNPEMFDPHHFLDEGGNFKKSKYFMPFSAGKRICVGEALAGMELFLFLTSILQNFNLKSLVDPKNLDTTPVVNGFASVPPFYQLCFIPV
Cytochrome P450 3A4, sequence (P08684 whole entry): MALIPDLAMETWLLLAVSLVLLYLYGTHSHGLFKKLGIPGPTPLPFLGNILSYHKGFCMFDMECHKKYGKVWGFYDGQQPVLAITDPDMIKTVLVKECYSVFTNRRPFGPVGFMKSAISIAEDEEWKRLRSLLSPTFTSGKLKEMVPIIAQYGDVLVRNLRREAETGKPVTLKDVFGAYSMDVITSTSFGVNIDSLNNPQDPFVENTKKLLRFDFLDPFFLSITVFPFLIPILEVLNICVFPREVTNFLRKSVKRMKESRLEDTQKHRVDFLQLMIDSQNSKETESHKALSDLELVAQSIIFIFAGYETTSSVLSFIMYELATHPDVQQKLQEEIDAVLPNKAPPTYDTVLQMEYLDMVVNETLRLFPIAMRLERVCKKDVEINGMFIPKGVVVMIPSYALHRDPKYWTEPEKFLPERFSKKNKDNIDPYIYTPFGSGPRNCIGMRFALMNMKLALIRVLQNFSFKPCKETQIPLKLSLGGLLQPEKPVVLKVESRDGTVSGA

| inhibition [1] | inhibition [2] | inhibition (Trypanosoma brucei [3]) | inhibition [4] | inhibition (Leishmania mexicana [5]) | inhibition (Trypanosoma brucei [6]) | EC50 [10] | inhibition (INH) (Cytochrome P450 1A2 [12]) | SMILES | Activity (A549) | Activity (WI-38) | Activity (786-0) | CI [8] | MNTC at 72 h [9] | selectivity ratio (in vitro) | Activity [11] | also measured |
| --- | --- | --- | --- | --- | --- | --- | --- | --- | --- | --- | --- | --- | --- | --- | --- | --- |
| < 30% | inactive | 53% | Active | < 25% | < 25% | – | – | O=c1c(O)c(-c2ccc(O)c(O)c2)oc2cc(O)ccc12 [FISETIN] | Non-Toxic | Non-Toxic | Non-Toxic | – | – | – | – | – |
| < 30% | inactive | 33% | – | < 25% | < 25% | 4.29 µM | Not Active | O=c1c(O)c(-c2ccc(O)cc2)oc2cc(O)ccc12 [RESOKAEMPFEROL] | Non-Toxic | Non-Toxic | Non-Toxic | >1.5 | 20 µM | 4 | Active | CI [7]: >1.5 |
| – | inactive | 96% | – | 42 to 43% | 42 to 43% | 7.56 µM | Not Active | O=c1c(O)c(-c2cccc(O)c2)oc2ccc(O)cc12 | Non-Toxic | Non-Toxic | Non-Toxic | >1 | – | 7 | Active | solubility [13]: Soluble; IC50 (Cytochrome P450 2C9): > 10 µM; Drug uptake [14]: Not Active; half-life [15]: 7.6 min; Drug uptake [16]: Not Active; IC50 (Cytochrome P450 2C19): > 10 µM; MNTC at 72 h [17]: > 100 µM; EC50 [18]: 5.7 µM; IC50 (Cytochrome P450 3A4): > 10 µM; IC50 (Dihydrofolate reductase): 50 µM; CC50 at 72 h [9]: 53 µM; Drug uptake [19]: Not Active; IC50 (Cytochrome P450 2D6): > 10 µM; IC50 [20]: 99.3 µM; inhibition (Leishmania mexicana [21]): 86%; IC50 [22]: 4.3 µM; EC50 [23]: 3.27 µM; MNTC at 72 h [24]: > 100 µM; Drug uptake [25]: Not Active; IC50 (Cytochrome P450 1A2 [26]): 6.1 µM |
| < 30% | inactive | 85% | Active | < 25% | < 25% | 18 µM | – | O=c1c(O)c(-c2cc(O)c(O)c(O)c2)oc2cc(O)ccc12 [ROBINETIN] | Non-Toxic | Non-Toxic | Non-Toxic | – | 100 µM | 5 | – | Activity (Leishmania infantum): 10% |
